Source: patent publication US7351397B2, “Stabilization of radiopharmaceutical compositions using hydrophilic 6-hydroxy chromans” (CIS bio international, priority 2000, dated 2008)

Legend:
Format in all cases: physicochemical
[1] = Radiolabelling yield (RCP) by reversed phase HPLC of 99mTc-labelled depreotide from lyophilized kits with Trolox; conditions: prepared from formulated kits
Procedure: Lyophilized kit vials were prepared containing depreotide, Trolox®, and other components as described in Table 3.
Some of the formulations were also radiolabelled in a heated preparation (heat in a boiling water bath for 10 minutes).

[2] = Radiolabelling yield (RCP) by reversed phase HPLC of 99mTc-labelled glycoprotein IIb/IIIa receptor-binding peptide with and without Trolox
Procedure: Lyophilized kit vials were prepared containing the peptide (50 μg), sodium glucoheptonate dihydrate (10 mg), stannous chloride dihydrate (50 μg), and edetate disodium dihydrate (100 μg). The formulation was adjusted to pH 7.4 prior to lyophilization.
The lyophilized kits were radiolabelled with ^99mTc in the presence and absence of Trolox®. To the Trolox® preparation was added 2 mg Trolox® in 100 μL ethanol and 100 μL saline. The ethanol was necessary to aid in the dissolution of the Trolox®. To the control preparation was added 100 μL ethanol and 100 μL saline to account for the additional saline or ethanol added with the Trolox.

[3] = Radiolabelling yield (RCP) by reversed phase HPLC of 99mTc-labelled bisamide bisthiol non-peptide chelator with and without Trolox
Text: The non-peptide chelator was radiolabelled with ^99mTc in the presence and absence of Trolox® using the placebo vial heated preparation procedure as described in Example 4.

[4] = Radiolabelling yield (RCP) by reversed phase HPLC of 99mTc depreotide from lyophilized kits after accelerated temperature (40° C.) storage; conditions: lyophilized kits thermally stressed by accelerated temperature storage
Procedure: Lyophilized kits were prepared containing depreotide, Trolox®, and other components as described in Table 5. […] The kits were stored for one week at 40° C. Some kits were also stored at −10° C. as controls.

[5] = Radiolabelling yield (RCP) by reversed phase HPLC of 99mTc-labelled monoamine, diamide, single thiol peptide chelator with and without Trolox
Procedure: Lyophilized kit “placebo” vials were prepared containing sodium glucoheptonate dihydrate, edetate disodium dihydrate, and stannous chloride dihydrate at the concentrations set forth in Table 1 (control formulation).
The peptide chelator was radiolabelled with ^99mTc in the presence and absence of Trolox®. The peptide chelator was dissolved in water at a concentration of 1 mg/mL, and 50 μg (50 μL) of the peptide was added to each of three placebo vials. Ethanol and Trolox® were added to the control and Trolox®, preparations as described in Example 11. In addition, 100 μL phosphate buffered saline (PBS) was added to each preparation.

[6] = Radiolabelling yield (RCP) by reversed phase HPLC of 99mTc-labelled depreotide from lyophilized kits with gentisic acid; conditions: when included in formulated kits
Procedure: Lyophilized kit vials were prepared containing depreotide, GA, and other components as described in Table 1. Formulations were adjusted to pH 7.4 or 8.5 (as noted) prior to lyophilization.

Compound | effect on radiolabelling yield and stability of 99mTc depreotide [1] | effect on radiolabelling yield and stability of 99mTc-peptide [2] | effect on radiolabelling yield and stability of 99mTc-labelled non-peptide chelator [3] | stabilization of 99mTc-depreotide [4] | effect on radiolabelling yield and stability of 99mTc-labelled peptide chelator [5] | effect on radiolabelling yield and stability of 99mTc-depreotide [6]
Cc1c(C)c2c(c(C)c1O)CCC(C)(C(=O)O)O2 (stereo not drawn) [Trolox®, 6-hydroxy-2,5,7,8-tetramethylchroman-2-carboxylic acid] | increases the radiolabelling yield and the stability | increases the radiolabelling yield and the stability | increases the radiolabelling yield and the stability | stabilizes | increases the radiolabelling yield and the stability | –
O=C(O)c1cc(O)ccc1O [gentisic acid, Gentisic acid] | – | – | – | – | – | decreases the radiochemical purity
